One assay has as its system E. coli K1 pilA+::tetR. Nature of the assay: microbe, parasite or virus in culture. The settings on record: for IC100: Escherichia coli, 0.05 h, read-out: Concentration causing total inhibition of yeast agglutination; for Relative Inhibitory Activity: concentration of methyl α-D-mannopyranoside divided by the concentration of the compound. Type of assay: cell-based. As for the experimental part:
Compounds 4, 6-9 and 12 were assayed for bacterial receptor binding using agglutination studies with yeast cells and their inhibitory activity was compared to that of methyl α-D-mannopyranoside 13 (Firon et al. (1983) Carbohydrate Research 120:235; Eshdat et al. (1978) Biochem. Biophys. Res. Commun. 85:1551; and Firon et al. (1982) Biochem. Biophys. Res. Commun. 105:1426. The bacterial strain used in our study was a systemically invasive E. coli K1 pilA+::tetR strain that is responsible for sepsis and meningitis in human infants (Bloch et al. (1990) Infection and Immunity 58:275). A summary of the results is given in Table 2.
^a E. coli K1 pilA+::tetR were grown for 24 h at 37° C. on
solid LB media supplemented with tetracycline and were suspended with a
cotton swab in 4 mL of Dulbecco's PBS to a final dilution of 2 ×
10^8 cells/mL. Yeast (Saccharomyces cerevisiae, wild type) were grown
for 36 h on solid YPD media at 30° C. and were suspended with a
cotton swab in 4 mL of Dulbecco's PBS to a final dilution of 1 ×
10^8 cells mL. Protein concentrations were determined by BCA Protein
Assay (Pierce). Agglutination assays were performed on a 20 well ceramic
ring plate. Typically, 90 μl of a solution of the test compound was
combined with 30 μl of the bacterial suspension. After 30 seconds, 30
μl of the yeast suspension was added to give a final volume of 150
μl and the wells were allowed to develop for 3 min. with agitation. A
μl aliquot was removed from each well and spread onto a standard
microscope slide. The slides were quickly heat fixed and mounted with 10
μl of glycerol. The slides were examined under phase contrast at
500× magnification using a Zeiss Axioskip microscope. Agglutination
was observed as clusters of cells. total inhibition of agglutination was
determined by the observation of single cells only.
^b Concentration causing total inhibition of yeast agglutination.

For a further assay, the system named is complement (Clq). Nature of the assay: Binding of complement (Clq) to anti-avidin (IgG2) bound to E. coli through the hybrid molecule. The text has this:
Clq binding is the first step in the complement cascase which is part of the humoral response.

The test system of another assay is E. coli cell. Nature of the assay: Localization of protein A-gold particles on the E. coli cell surface by transmission electron microscopy. It is filed as cell-based. As to conditions: avidin, anti-avidin antibodies, protein A labelled with gold particles (15 nm); no localization without hybrid molecule. The source says:
The particles were bound through a hybrid molecule consisting of a mannose binding moiety attached to biotin through a carbon linkage. Avidin, anti-avidin antibodies, and protein A labelled with the gold particles were exposed to cell and completed a bridge binding the gold particles. The location of a gold particle is shown by the arrow.
FIG. 6 is an electron micrograph showing a strain of E. coli, similar to that illustrated in FIG. 5, in the absence of the hybrid molecule. The cell was exposed to avidin, anti-avidin antibodies, and protein A labelled with gold particles. No localization of the gold particles was achieved without the hybrid molecules.
E coli cells bound with avidin, as described above, were sequentially exposed to anti-avidin antibodies and gold (15 nm) colloidal particles bound to protein A. It was expected that the gold would localize on the E. coli cell surface through an antibody-protein A bridge. Localization on bacterial pili was confirmed by transmission electron microscopy (TEM). The results are shown in FIG. 5 (typical gold particle shown by arrow) and FIG. 6 (control where E. coli cells incubated with protein A-gold without anti-avidin antibody).

Take `CCC[C@H]1O[C@H](CO)[C@@H](O)[C@H](O)[C@@H]1O` [Compound 4]: in the assay with E. coli K1 pilA+::tetR, the IC100 was 7000 µM and the “Relative Inhibitory Activity” value was 9.6.

For the compound `O=C(O)CC[C@H]1O[C@H](CO)[C@@H](O)[C@H](O)[C@@H]1O` [Compound 6], in the assay with E. coli K1 pilA+::tetR, the IC100 amounted to 47000 µM and the “Relative Inhibitory Activity” value is 1.4.

With `NCCC[C@H]1O[C@H](CO)[C@@H](O)[C@H](O)[C@@H]1O` [Compound 7], in the assay on E. coli K1 pilA+::tetR, the IC100 was 40000 µM and the “Relative Inhibitory Activity” value stood at 1.7.

For the compound `OCCC[C@H]1O[C@H](CO)[C@@H](O)[C@H](O)[C@@H]1O` [Compound 8], in the assay with E. coli K1 pilA+::tetR, the IC100 was 13000 µM and the “Relative Inhibitory Activity” value stood at 5.2.

`O=C(CCCC[C@@H]1SC[C@@H]2NC(=O)N[C@@H]21)NCCC[C@H]1O[C@H](CO)[C@@H](O)[C@H](O)[C@@H]1O` [Compound 9]: the “Clq binding to anti-avidin (IgG2) bound to E. coli” value in the assay with complement (Clq) is given as “has also been shown”. Further, the “Localization of gold particles on the E. coli surface (TEM)” value in the assay on E. coli cell is on record as “localization of gold particles on the surface of an E. coli cell”. Moreover, in the assay with E. coli K1 pilA+::tetR, the IC100 came to 7000 µM and the “Relative Inhibitory Activity” value turned out to be 9.6.

For `CCC[C@@H]1O[C@H](CO)[C@@H](O)[C@H](O)[C@@H]1O` [Compound 12], in the assay on E. coli K1 pilA+::tetR (at a concentration of 100 mM), the “Inhibitory activity on agglutination” value is “no inhibitory activity”.

As to `CO[C@H]1O[C@H](CO)[C@@H](O)[C@H](O)[C@@H]1O` [Compound 13, methyl α-D-mannopyranoside, reference compound], in the assay with E. coli K1 pilA+::tetR, the IC100 was found to be 67000 µM and the “Relative Inhibitory Activity” value is reported as 1.

As for `O=[N+]([O-])c1ccc(O[C@H]2O[C@H](CO)[C@@H](O)[C@H](O)[C@@H]2O)cc1` [Compound 14, reference compound], in the assay with E. coli K1 pilA+::tetR, the IC100 is 1600 µM and the “Relative Inhibitory Activity” value is 42.

Consider “avidin: avidin alone, a soluble glycosylated protein used in place of streptavidin [reference compound]”, for which the “Concentration causing total inhibition of yeast agglutination” value in the assay with E. coli K1 pilA+::tetR (E. coli K1 pilA+::tetR with Saccharomyces cerevisiae, 3 min, single cells only under phase contrast) is listed as 0.4 mM.

The values are drawn from patent US5212075A, “Compositions and methods for introducing effectors to pathogens and cells” (priority 1991, dated 1993).
